This is an account of results in US20240168030A1, “DIRECT FLUORESCENT GLYCAN LABELING” (BIO-TECHNE CORPORATION, priority 2019, published 2024).

Holding throughout (assay type): biochemical
One experiment addresses T1, FUT9 (Homo sapiens, UniProt Q9Y231).
T1 construct: purchased Bio-Techne (Minneapolis, MN)
T1 sequence (Q9Y231 1-359): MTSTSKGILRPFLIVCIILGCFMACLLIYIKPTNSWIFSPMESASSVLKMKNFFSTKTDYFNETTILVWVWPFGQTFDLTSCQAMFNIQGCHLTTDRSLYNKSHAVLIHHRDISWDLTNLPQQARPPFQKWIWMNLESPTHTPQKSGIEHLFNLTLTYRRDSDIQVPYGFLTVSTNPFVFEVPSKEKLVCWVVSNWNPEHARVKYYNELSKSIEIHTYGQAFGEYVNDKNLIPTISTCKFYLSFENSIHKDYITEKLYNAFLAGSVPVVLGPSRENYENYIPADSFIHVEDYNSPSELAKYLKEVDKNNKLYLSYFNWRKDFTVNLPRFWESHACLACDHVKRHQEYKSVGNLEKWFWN
Kind of experiment: Fluorescent labeling with fluorophore-conjugated fucose by FUT9. Further details: key to Tolerance of the fluorophore by FUT9: +++: indicated by number of + signs; ++: indicated by number of + signs; indicated by number of + signs. The note with it: for Tolerance of the fluorophore by FUT9: fluorophore-conjugated fucose donor, acceptor GlcNAc of lactosamine, FIG. 9. The method, then: (§1) FIG. 9A-FIG. 9B show exemplary results of probing substrate glycans of various fucosyltransferases on fetuin and asialofetuin. FIG. 9A. Probing substrate glycans of fucosyltransferases with guanosine 5′-diphosphate activated Cy5 conjugated fucose (GDP-Cy5-Fuc). […] FUT9 labeled itself (indicated by an arrow in the gel). FIG. 9B. Tolerance of Alexa-Fluor®555 (555), Alexa-Fluor®488 (488), and Cy5 by the indicated fucosyltransferases. All reactions were incubated at 37° C. for 30 minutes and then separated on SDS-PAGE and imaged with silver staining (upper panels) and fluorescent imager (lower panels). M, molecular marker.
FIG. 10A-FIG. 10D show exemplary results of probing core-6 fucosylation on antibodies by FUT8 incorporation of fluorophores. FIG. 10A. Results of probing substrate glycans of FUT8 (F8) and FUT9 (F9) on Cantuzumab, an anti-Muc1 therapeutic antibody, and NIST reference mAb 8671 using guanosine 5′-diphosphate activated Alexa-Fluor®555 conjugated fucose (GDP-AF555-Fuc) (555), GDP-Cy5-fucose (Cy5), and guanosine 5′-diphosphate activated Alexa-Fluor®488 conjugated fucose (GDP-AF488-Fuc) (488) as donor substrates. Cantuzumab was expressed in FUT8 knockout cells and is devoid of core-6 fucose. Molecular marker (MM) is a prestained Western molecular marker (Bio-Rad Laboratories, Hercules, CA). […] The product of each reaction was separated using SDS-PAGE and imaged with trichloroethanol (TCE) staining (upper panel) and fluorescent imager (lower panel). Labeling on the light chains of the antibodies by Alexa-Fluor®555 is likely the result of non-specific staining due to the use of unpurified GDP-AF555-Fuc that contained free Alexa-Fluor®555. FIG. 10B. […] FIG. 10C. […] FIG. 10D. Schematics of the glycan structures analyzed in FIG. 10B and FIG. 10C.
Mouse IgG (R&D Systems, Minneapolis, MN) was digested with Endo S thoroughly and labeled with 0.3 μg of FUT9 and 0.2 nmol of GDP-Cy5-Fuc in 30 μl at 37° C. for the indicated time points. The glycans were also pretreated with B4GalT2 for 5 minutes at 37° C. and then labeled in the same way. The reactions were separated on 15% SDS PAGE. B4GalT2 pretreatment converted all G1′ to G2′. Maximal labeling on G1′ and G2′ were achieved around 30 minutes. […] The heavy chain (HC) and light chain (LC) were visible in the TCE image. M, Western blot marker (Bio-Rad Laboratories, Hercules, CA).
(§2) For a typical labeling reaction, 1 μg to 5 μg target protein was mixed with 0.2 nmol GDP-f-Fuc and 0.2 μg of a fucosyltransferase in 30 μL buffer of 25 mM Tris pH 7.5, 10 mM MnCl2. The mixture was incubated at 37° C. for 30 minutes. The reaction was then separated by sodium dodecyl sulfate—polyacrylamide gel electrophoresis (SDS-PAGE) and the gel was directly imaged using a fluorescent imager FluorChem M ProteinSimple, Bio-Techne, Minneapolis, MN), followed by imaging with traditional protein imaging methods such as silver staining or trichloroethanol (TCE) staining.
(§3) The four enzymes tolerated the three fluorophores to different levels.

A further experiment deals with T2, FUT2 (Homo sapiens, UniProt Q10981).
T2 construct: purchased Bio-Techne (Minneapolis, MN)
T2 sequence (Q10981 1-343): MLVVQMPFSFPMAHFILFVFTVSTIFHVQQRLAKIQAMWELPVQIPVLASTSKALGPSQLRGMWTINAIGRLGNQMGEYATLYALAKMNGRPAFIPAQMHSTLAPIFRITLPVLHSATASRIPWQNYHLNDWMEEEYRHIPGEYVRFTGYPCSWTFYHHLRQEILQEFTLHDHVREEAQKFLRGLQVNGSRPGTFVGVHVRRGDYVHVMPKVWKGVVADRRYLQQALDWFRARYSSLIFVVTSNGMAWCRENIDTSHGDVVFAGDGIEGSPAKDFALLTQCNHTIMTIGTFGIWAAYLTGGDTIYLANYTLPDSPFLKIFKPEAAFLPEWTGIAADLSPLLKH
Kind of experiment: Fluorescent labeling with fluorophore-conjugated fucose by FUT2. More on the design: key to Tolerance of the fluorophore by FUT2: +++: indicated by number of + signs; ++: indicated by number of + signs; indicated by number of + signs. The note with it: for Tolerance of the fluorophore by FUT2: fluorophore-conjugated fucose donor, acceptor terminal Gal of lactosamine, fluorescent intensity of labeled fetuin or asialofetuin in FIG. 9. The protocol: as §1, §2, §3

For the next experiment, the target named is T3, FUT7 (Homo sapiens, UniProt Q11130).
T3 sequence (Q11130 1-342): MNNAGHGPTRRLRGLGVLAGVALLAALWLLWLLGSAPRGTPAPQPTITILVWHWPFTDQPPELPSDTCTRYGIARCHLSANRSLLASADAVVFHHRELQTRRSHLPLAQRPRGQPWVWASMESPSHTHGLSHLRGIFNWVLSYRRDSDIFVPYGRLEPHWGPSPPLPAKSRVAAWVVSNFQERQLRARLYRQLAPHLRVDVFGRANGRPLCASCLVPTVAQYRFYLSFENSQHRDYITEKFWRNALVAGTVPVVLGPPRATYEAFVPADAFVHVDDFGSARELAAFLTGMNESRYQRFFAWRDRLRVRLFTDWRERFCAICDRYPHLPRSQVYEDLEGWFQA
Put plainly: Fluorescent labeling with fluorophore-conjugated fucose by FUT7. More on the design: key to Tolerance of the fluorophore by FUT7: +++: indicated by number of + signs; ++: indicated by number of + signs; indicated by number of + signs. The note with it: for Tolerance of the fluorophore by FUT7: fluorophore-conjugated fucose donor, acceptor GlcNAc of sialylactosamine, FIG. 9. The protocol:
as §1, §2, §3

The mark [1] stands for this setting: among Cy5-, AlexaFluor® 488-, and AlexaFluor® 555-conjugated fucoses, FIG. 9B.

Take “guanosine 5′-diphosphate activated Alexa-Fluor®488 conjugated fucose [GDP-AF488-Fuc]”: the “Tolerance of the fluorophore by FUT9” value at FUT9 was “+++”. Moreover, the “Tolerance of the fluorophore by FUT2” value on FUT2 is reported as “+”. Moreover, the “Fluorophore preference of FUT7” value on FUT7 (setting [1]) was “preferred”. Besides, the “Tolerance of the fluorophore by FUT7” value at FUT7 is reported as “++”.

“guanosine 5′-diphosphate activated Alexa-Fluor®555 conjugated fucose [GDP-AF555-Fuc]”: the “Fluorophore preference of FUT9” value on FUT9 (setting [1]) is on record as “preferred”. The “Tolerance of the fluorophore by FUT9” value at FUT9 was “+++”. Further, the “Fluorophore preference of FUT2” value at FUT2 (setting [1]) is “preferred”. On FUT2, the “Tolerance of the fluorophore by FUT2” value is listed as “+++”. Also, on FUT7, the “Tolerance of the fluorophore by FUT7” value is given as “+”.
